According to ChEMBL document CHEMBL4043144, “Design, synthesis and evaluation of 2,2-dimethyl-1,3-dioxolane derivatives as human rhinovirus 3C protease inhibitors” (Bioorg Med Chem Lett, 2017):

Tests used:
Human rhinovirus sp. [1] = assay: Inhibition of recombinant N-terminal His-tagged HRV 3C protease expressed in Escherichia coli at 100 uM preincubated for 15 mins followed by LEVLFQGPSK substrate addition after 45 mins by reverse-phase HPLC analysis relative to control
Human rhinovirus sp. [2] = assay: Inhibition of recombinant N-terminal His-tagged HRV 3C protease expressed in Escherichia coli at 10 uM preincubated for 15 mins followed by LEVLFQGPSK substrate addition after 45 mins by reverse-phase HPLC analysis relative to control
[3] = Inhibition of recombinant N-terminal His-tagged HRV 3C protease expressed in Escherichia coli preincubated for 15 mins followed by LEVLFQGPSK substrate addition after 45 mins by reverse-phase HPLC analysis; parameters: species or system Human rhinovirus sp.

| inhibition (Human rhinovirus sp. [1]) | inhibition (Human rhinovirus sp. [2]) | IC50 [3] | Structure (SMILES) |
| --- | --- | --- | --- |
| 82.5% | 10.8% | > 10 µM | CC1(C)O[C@H](C(=O)Nc2nc3ccccc3s2)[C@@H](C(=O)N2CCN(c3ccccn3)CC2)O1 |
| 78.7% | 20.2% | > 10 µM | Cc1cccc(CN2CCN(C(=O)[C@@H]3OC(C)(C)O[C@H]3C(=O)Nc3nc4ccccc4s3)CC2)c1 |
| 56.4% | 20.8% | > 10 µM | CC1(C)O[C@H](C(=O)Nc2nc3ccccc3s2)[C@@H](C(=O)N2CCN(Cc3ccccc3)CC2)O1 |
| 100% | 69% | 8.57 µM | CC1(C)O[C@@H](C(=O)Nc2nc3ccccc3s2)[C@H](C(=O)N2CCN(c3ccccc3)CC2)O1 |
| 100% | 86% | 2.5 µM | CC1(C)O[C@@H](C(=O)Nc2nc3ccccc3s2)[C@H](C(=O)N2CCN(c3ccccc3C#N)CC2)O1 |
| 67.8% | 17.5% | > 10 µM | CC1(C)O[C@H](C(=O)Nc2nc3ccccc3s2)[C@@H](C(=O)N2CCN(c3ccccc3)CC2)O1 |
| 97.8% | 64.4% | 10.6 µM | CC1(C)O[C@@H](C(=O)Nc2nc3ccccc3s2)[C@H](C(=O)N2CCN(c3ccccn3)CC2)O1 |

Continued, molecule first:

| Structure (SMILES) | inhibition (Human rhinovirus sp. [1]) | inhibition (Human rhinovirus sp. [2]) | IC50 [3] |
| --- | --- | --- | --- |
| Cc1cccc(CN2CCN(C(=O)[C@H]3OC(C)(C)O[C@@H]3C(=O)Nc3nc4ccccc4s3)CC2)c1 | 85.3% | 34.3% | > 10 µM |
| CC1(C)O[C@H](C(=O)Nc2nc3ccccc3s2)[C@@H](C(=O)N2CCN(c3ccccc3C#N)CC2)O1 | 84.2% | 48.1% | > 10 µM |
| COc1cccc(NCCNC(=O)[C@@H]2OC(C)(C)O[C@H]2C(=O)Nc2nc3ccccc3s2)c1 | 99.9% | 62.2% | 8.28 µM |
| COc1cccc(NCCNC(=O)[C@@H]2OC(C)(C)O[C@H]2C(=O)Nc2ccc3ccccc3c2)c1 | 80.6% | 44% | > 10 µM |
| CC1(C)O[C@@H](C(=O)Nc2nc3ccccc3s2)[C@H](C(=O)N2CCN(Cc3ccccc3)CC2)O1 | 85.5% | 18.8% | > 10 µM |
| COc1cccc(NCCNC(=O)[C@H]2OC(C)(C)O[C@@H]2C(=O)Nc2nc3ccccc3s2)c1 | 85.2% | 43.6% | > 10 µM |
